Patent publication US11433042B2, “Methods and compositions for treating metabolic disorders” (Joslin Diabetes Center, Inc., priority 2017, dated 2022)
Entries after “also recorded” stand apart in the source; their conditions may differ.

Columns and labels:
[1] = Cold tolerance assay (body core temperature at 4° C.); format: in vivo; details: mice, 1 μg/kg retro-orbitally, cold challenge at 4° C., compared to vehicle and 12,13-epOME
Description: (§1) For cold tolerance assay, mice were injected retro-orbitally with 1 μg/kg body weight 12,13-diHOME (purchased from Cayman Chemical Company) in 0.1% w/v BSA in PBS or vehicle, then immediately placed in a cold room maintained at 4° C. and body core temperature was determined by rectal probe measurements. Mice injected retro-orbitally were also used to measure blood pressure and pulse with the tail cuff method (Hatteras Instruments).

[2] = Blood pressure and pulse by the tail cuff method; format: in vivo; details: mice, acute pretreatment
Description: as §1

[3] = CLAMS study in cold conditions (4° C.); format: in vivo; details: mice, 1 μg/kg intravenously, 1 h at cold (4° C.)
Description: For CLAMS studies, mice were injected intravenously with 1 μg/kg body weight 12,13-diHOME in 0.1% BSA PBS or vehicle and then monitored using the CLAMS system in cold conditions (4° C.) for 1 hour. Respiratory exchange ratio (R.E.R.) was calculated as the ratio of total carbon dioxide produced to total oxygen consumed.

lipoprotein lipase (LPL) = test: mRNA expression by qPCR in tissue from 12,13-diHOME treated mice; format: in vivo; details: diet-induced obese mice, 2 weeks at 10 μg/kg body weight
Description: For the experiments with daily injections of 12,13-diHOME, mice were fed with a high-fat diet containing 60 kcal % fat (Research Diets Stock no. D12492) for 16 weeks prior to treatment and during the course of the experiment. Mice were first injected intraperitoneally daily with 1 ug/kg body weight, 12,13-diHOME in 0.1% BSA w/v in PBS or vehicle and body for one week, then injected every day with 10 ug/kg body weight two weeks. For all experiments, serum was collected and triglycerides were measured using a standard enzymatic assay (ZenBiosystems). Non-esterified FA were also measured with a colorimetric assay (Wako Chemicals USA). High-density and low-density lipoprotein fractions were isolated and cholesterol was measured with a colorimetric assay (Abcam). All mice were allowed ad libitum access to water and food. Total RNA was extracted from tissue with Trizol and purified using a spin column kit (Zymo Research). RNA (500 ng-1 μg) was reverse transcribed with a high-capacity complementary DNA (cDNA) reverse transcription kit (Applied Biosystems). Real-time PCR was performed in mouse tissues starting with 10 ng of cDNA and forward and reverse oligonucleotide primers (300 nM each) in a final volume of 10 μl with SYBR green PCR Master Mix (Roche). Fluorescence was determined and analyzed in an ABI Prism 7900 sequence detection system (Applied Biosystems). […]

BAT = test: In vivo radiolabeled organ distribution studies (oleate, glucose, triolein); details: mice
Description: For in vivo fatty acid organ distribution studies, an oleate/^3H-oleate tracer mix was complexed to fatty acid-free BSA (Schlein, et al., Cell Metab. 23, 441-453 (2016)) and injected into the tail vein of wild type C57BL/6J mice 15 minutes after treatment with either vehicle, 1 μg/kg body weight 12,13-diHOME in 0.1% BSA PBS or NE. Similarly, radiolabeled organ distribution studies were performed in mice either by injection into the tail vein with 2-desoxy-D-[^14C]-glucose (PerkinElmer, 0.025 mCi per kg) in PBS or orally gavaged with 10 mL/kg olive oil (Sigma) containing [9,10-^3H(N)]-triolein (PerkinElmer, 0.3 mCi/kg). In all assays, organs were harvested after 15 minutes under terminal anesthesia and systemic perfusion with PBS-heparin (10 U/ml) via the left heart ventricle. Tissues were homogenized by using Solvable (PerkinElmer) and disintegrations per minute per organ data were calculated by scintillation counting.

WT-1 brown adipocytes = test: 14C-labeled palmitic acid uptake and oxidation; format: cell-based; details: mature brown adipocytes
Description: FA uptake and oxidation were determined by measuring both ^14C-labeled palmitic acid uptake and conversion of ^14C-labeled palmitic acid into CO2. WT-1 brown preadipocytes were differentiated according to a standard adipogenic differentiation protocol for 9 days before cells were serum starved for 1 hour. Cells were treated with 1 μM 12,13-diHOME or methyl acetate vehicle in 0.1% w/v BSA in PBS for 15 minutes before the culture medium was removed, and cells were incubated with DMEM/H containing 4% FA-free BSA w/v in PBS, 0.5 mM palmitic acid, and 0.2 μCi/mL [1-^14C]-palmitic acid (PerkinElmer Life and Analytical Science, Waltham, Mass.) for 1 h. The incubation medium was transferred to a vial containing 1M acetic acid, capped quickly, and allowed to incubate for 1 h for CO2 gas to be released. The CO2 released was absorbed by hyamine hydroxide, and activity was counted. FA oxidation was calculated from CO2 generated. To measure fatty acid uptake, cells were rinsed twice with PBS and lysed after incubation with [1-^14C]-palmitic acid. Lipids were extracted using a chloroform-methanol mixture (2:1), and ^14C-counts were determined in the organic phase. Protein concentrations were determined by using the Pierce BCA kit (Life Technologies) according to instructions, and FA uptake (^14C lipids in the cells) and oxidation (^14CO2 generated) were normalized to protein content. […]

CD36 = test: Membrane fractionation and immunoblot, CD36; format: cell-based; details: differentiated WT-1 brown adipocytes, 1 μM for 15 minutes
Description: (§2) WT-1 brown preadipocytes were differentiated according to a standard adipogenic differentiation protocol for 9 days before cells were serum starved for 1 hour. Cells were treated with 1 μM 12,13-diHOME or methyl acetate vehicle in 0.1% BSA w/v in PBS for 15 minutes before cells were scraped from tissue culture plates into homogenization buffer and membranes were separated according to previously published protocols (Nishiumi, S. & Ashida, H., Bioscience, biotechnology, and biochemistry. 71, 2343-2346 (2007)). Protein lysates were stored at −20° C. until further use. Protein concentrations were determined by using the Pierce BCA kit (Life Technologies) according to instructions. For immunoblots, lysates were diluted into Laemmli buffer and boiled, then loaded onto 10% Tris gels for SDS-PAGE. After complete separation of the proteins, these were transferred on a PVDF membrane (Amersham Biosciences), blocked in western blocking buffer (Roche), and primary antibodies listed in Table 1, below, were applied in blocking buffer over night at 4° C. After washing 4× for 15 min with TBS-T, secondary antibodies were applied for 1 h in blocking buffer. Membranes were washed again 3× times for 15 min in TBS-T and developed using chemiluminescence (ThermoFisher). After scanning films, densitometry was analyzed using ImageJ software.

FATP1 = test: Membrane fractionation and immunoblot, FATP1; format: cell-based; details: differentiated WT-1 brown adipocytes, 1 μM for 15 minutes
Description: as §2

## CCCCCC(O)C(O)C/C=C\CCCCCCCC(=O)O (stereo not drawn) [12,13-diHOME, 12,13-dihydroxy-9Z-octadecenoic acid]
[1]
  body temperature during cold challenge: protected mice from the decrease in body temperature; also recorded: protected mice from cold challenge
[2]
  blood pressure: no effect
  diastolic pressure: very transient increase
  pulse: no effect
[3]
  carbon dioxide production: significant increases
  oxygen consumption: significant increases
  respiratory exchange ratio: decrease
Lipoprotein lipase (LPL)
  expression of lipoprotein lipase (LPL) in BAT: increased
BAT; 1 μg/kg, radiolabeled oleate, similar level achieved by NE
  FA uptake into BAT: significant increase
BAT; radiolabeled glucose, similar level achieved by NE
  glucose uptake into BAT: significant increase
BAT; triglyceride delivered by oral gavage
  BAT specific uptake of radiolabeled triglyceride: enhanced
WT-1 brown adipocytes; 1 μM for 15 minutes, 14C palmitic acid
  radiolabeled FA uptake: markedly increased
WT-1 brown adipocytes; 1 μM, 14C palmitic acid to CO2
  FA oxidation: trend to increase
CD36
  membrane translocation of the low glycosylation form of CD36: robustly induced
FATP1
  membrane translocation of oligomeric FATP1: robustly induced
